{"source": "paper PMC4626104", "about": "“Inhibition on Proteasome β1 Subunit Might Contribute to the Anti-Cancer Effects of Fangchinoline in Human Prostate Cancer Cells” (PLoS ONE, 2015)", "type_in_all_cases": "cell-based, human", "key": {"[1]": {"test_system": "T1, cellular proteasome of LnCap cells", "T1 construct": "endogenous in cells; host or cells: LnCap cells, whole cell extract", "assay": "Cellular proteasome activities of LnCap cells", "settings": "24 h", "procedure": "Cells were treated with either solvent control (0.1% DMSO), fangchinoline at different concentrations, or 1 μM carfilzomib (positive control) for 24 h at 37 °C. The enzymatic activities of cellular proteasome in cell lysate were measured as reported in our previous paper. Briefly, cells were harvested, washed with PBS and then lysed in proteasome activity assay buffer for 30 min at 4°C. The homogenate was then centrifuged at 12000 × g for 30 min at 4°C. The supernatant was collected as whole cell extract and the protein content in the supernatant was measured with the Bradford reagent. Catalytic activities of cellular proteasome were assayed by adding whole cell extract (containing 30 μg protein) to 100 μL of proteasome activity assay buffer containing 50 μM fluorogenic peptide substrates such as Z-LLE-AMC for detecting C-L activity, Z-ARR-AMC for detecting T-L activity or Suc-LLVY-AMC for detecting CT-L activity, respectively. The release of fluorogenic AMC from the peptide substrates was then measured as described above."}, "[2]": {"test_system": "PC-3 cells with over-expression of proteasome β1 subunit", "assay": "MTT assay in PC-3 cells over-expressing proteasome β1 subunit (PSMB6 plasmid)", "settings": "24 h, 48 h or 72 h treatment", "procedure": "The inhibitive effects of fangchinoline on proliferation of PC-3 cells or LnCap cells was observed by checking cell viability of cells using MTT assay as described before. Briefly, cells were seeded in 96-well plates at a density of 5×10^4 cells/mL for PC-3 cell and 4×10^4 cells/mL for LnCap cells. After overnight culture, the media were changed into fresh media containing various concentrations of fangchinoline or 0.1% DMSO (solvent control) for 24, 48 h or 72 h. Cell viability was evaluated by measuring the mitochondrial-dependent conversion of the yellow tetrazolium salt MTT to purple formazan crystals by metabolic active cells. The optical density (proportional to the number of live cells) was assessed with a Microplate Reader Bio-Rad 550 at 570 nm. IC50 value (half-maximal inhibitory concentration) was calculated by the Logit method.\nCells with over-expression of proteasome β1 subunit were obtained by transfection with pcDNA3.1 plasmid encoding full-length human PSMB6 cDNA as described before. For plasmid transfection, 5 × 10^5 cells were seeded into each well of a six-well plate until the cells reached approximately 80% confluence after cultured for 24 h. […]"}, "PC-3 cells": {"test_system": "PC-3 cells", "assay": "Flow cytometric analysis of cell cycle in PC-3 cells", "settings": "24 h", "procedure": "The induction of cell cycle arrest and apoptosis by fangchinoline in PC-3 cells was observed by using flow cytometric analysis as described in our previous reports. Briefly, for flow cytometry analysis of cell cycle, cells were collected after treatment, washed with PBS and then fixed with 70% ethanol at 4°C for overnight. After PBS washes, cells were re-suspended in staining buffer (10 mg/mL RNase A and […] propidium iodide in cold PBS) for 30 min in dark at room temperature and then analyzed using FACSCalibur Flow Cytometer. For flow cytometric analysis of apoptosis, Alexa Fluor 488 Annexin V & PI /Dead cell Apoptosis Kit (Invitrogen) was used. Cells were collected after treatment, washed with PBS and then resuspended in binding buffer and then incubated with Annexin V-FITC and propidium iodide for 15 min in dark at room temperature. Then, flow cytometric analysis was conducted and data analysis was performed with CellQuest software."}}}
{"smiles": "COc1ccc2cc1Oc1ccc(cc1)C[C@H]1c3cc(c(OC)cc3CCN1C)Oc1c(O)c(OC)cc3c1[C@H](C2)N(C)CC3", "note": "[fangchinoline]", "values": [{"measurement": "Effect on CT-L activity of cellular proteasome", "setting": "[1]", "result": "did not affect"}, {"measurement": "Effect on T-L activity of cellular proteasome", "setting": "[1]", "result": "did not affect"}, {"measurement": "Inhibition of C-L activity of cellular proteasome", "setting": "[1]", "result": "significantly inhibit"}, {"measurement": "Sensitivity of cells with over-expression of proteasome β1 subunit to cytotoxicity vs wild type and negative control", "setting": "[2]", "result": "more sensitive"}, {"measurement": "Percentage (%) of cells in G0/G1 phase", "setting": "PC-3 cells; 5 μM", "result": "60.17±1.49", "unit": "%"}, {"measurement": "Percentage (%) of cells in G2/M phase", "setting": "PC-3 cells; 5 μM", "result": "11.21±2.45", "unit": "%"}, {"measurement": "Percentage (%) of cells in S phase", "setting": "PC-3 cells; 5 μM", "result": "28.62±2.31", "unit": "%"}, {"measurement": "Percentage (%) of cells in G0/G1 phase", "setting": "PC-3 cells; 8 μM", "result": "64.25±1.57", "unit": "%"}, {"measurement": "Percentage (%) of cells in G2/M phase", "setting": "PC-3 cells; 8 μM", "result": "11.99±2.23", "unit": "%"}, {"measurement": "Percentage (%) of cells in S phase", "setting": "PC-3 cells; 8 μM", "result": "23.76±2.77", "unit": "%"}, {"measurement": "Percentage (%) of cells in G0/G1 phase", "setting": "PC-3 cells; 12 μM", "result": "63.03±0.73", "unit": "%"}, {"measurement": "Percentage (%) of cells in G2/M phase", "setting": "PC-3 cells; 12 μM", "result": "11.59±1.99", "unit": "%"}, {"measurement": "Percentage (%) of cells in S phase", "setting": "PC-3 cells; 12 μM", "result": "25.37±1.75", "unit": "%"}, {"measurement": "Percentage (%) of cells in G0/G1 phase", "setting": "PC-3 cells; 18 μM", "result": "67.63±3.34", "unit": "%"}, {"measurement": "Percentage (%) of cells in G2/M phase", "setting": "PC-3 cells; 18 μM", "result": "8.88±2.91", "unit": "%"}, {"measurement": "Percentage (%) of cells in S phase", "setting": "PC-3 cells; 18 μM", "result": "23.48±2.14", "unit": "%"}, {"measurement": "Percentage (%) of cells in G0/G1 phase", "setting": "PC-3 cells; 27 μM", "result": "75.16±1.95", "unit": "%"}, {"measurement": "Percentage (%) of cells in G2/M phase", "setting": "PC-3 cells; 27 μM", "result": "8.65±1.81", "unit": "%"}, {"measurement": "Percentage (%) of cells in S phase", "setting": "PC-3 cells; 27 μM", "result": "16.19±0.63", "unit": "%"}, {"measurement": "Percentage (%) of cells in G0/G1 phase", "setting": "PC-3 cells; 40 μM", "result": "80.14±1.55", "unit": "%"}, {"measurement": "Percentage (%) of cells in G2/M phase", "setting": "PC-3 cells; 40 μM", "result": "7.99±1.43", "unit": "%"}, {"measurement": "Percentage (%) of cells in S phase", "setting": "PC-3 cells; 40 μM", "result": "11.88±0.56", "unit": "%"}]}
